The supplement of paper PMC10307832

Experiments:
Assay in all cases: relative viability (nuclei count vs DMSO), 5 days (fraction); higher = more cells survive
[1] = compound: CNC(=O)c1cc(Oc2ccc(NC(=O)Nc3ccc(Cl)c(C(F)(F)F)c3)cc2)ccn1 [Sorafenib] + Nc1nc2[nH]cc(CCc3ccc(C(=O)N[C@@H](CCC(=O)O)C(=O)O)cc3)c2c(=O)[nH]1 [Pemetrexed] (partner 0.2 µM)
In short: (§1)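 Lung cancer cell lines in 1536-well plates were dosed by pin tool the day after seeding, either with one drug alone or with a fixed anchor-drug dose plus five library-drug doses (not always all listed) in √10 steps. After 5 days, cells were fixed and their nuclei stained in one step (final 0.05% Triton X-100, 1% formaldehyde, 1 ug/ml Hoechst), then counted on 4× images. Relative viability is the nuclei count in treated wells divided by that in vehicle wells. Values are medians of duplicate plates.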

[2] = compound: CNC(=O)c1cc(Oc2ccc(NC(=O)Nc3ccc(Cl)c(C(F)(F)F)c3)cc2)ccn1 [Sorafenib] + Nc1ncn([C@H]2C[C@H](O)[C@@H](CO)O2)c(=O)n1 [Decitabine] (partner 2 µM)
In short: as §1

[3] = compound: CNC(=O)c1cc(Oc2ccc(NC(=O)Nc3ccc(Cl)c(C(F)(F)F)c3)cc2)ccn1 [Sorafenib] + NC(=O)Nc1cc(-c2cccc(F)c2)sc1C(=O)N[C@H]1CCCNC1 [AZD7762] (partner 0.2 µM)
In short: as §1

[4] = compound: CNC(=O)c1cc(Oc2ccc(NC(=O)Nc3ccc(Cl)c(C(F)(F)F)c3)cc2)ccn1 [Sorafenib] + CS(=O)(=O)N1CCN(Cc2cc3nc(-c4cccc5[nH]ncc45)nc(N4CCOCC4)c3s2)CC1 [Pictilisib] (partner 1 µM)
In short: as §1

[5] = compound: CNC(=O)c1cc(Oc2ccc(NC(=O)Nc3ccc(Cl)c(C(F)(F)F)c3)cc2)ccn1 [Sorafenib] + CC(=O)Nc1cccc(-n2c(=O)n(C3CC3)c(=O)c3c(Nc4ccc(I)cc4F)n(C)c(=O)c(C)c32)c1 [Trametinib] (partner 0.02 µM)
In short: as §1

Row | Cell Line | relative viability ([1]; first compound 0.08 µM) | relative viability ([1]; first compound 0.253 µM) | relative viability ([1]; first compound 2.53 µM) | relative viability ([1]; first compound 8 µM) | relative viability ([2]; first compound 0.08 µM) | relative viability ([2]; first compound 0.253 µM) | relative viability ([2]; first compound 2.53 µM) | relative viability ([2]; first compound 8 µM) | relative viability ([3]; first compound 0.08 µM) | relative viability ([3]; first compound 0.253 µM) | relative viability ([3]; first compound 2.53 µM) | relative viability ([3]; first compound 8 µM) | relative viability ([4]; first compound 0.08 µM) | relative viability ([4]; first compound 0.253 µM) | relative viability ([4]; first compound 2.53 µM) | relative viability ([4]; first compound 8 µM) | relative viability ([5]; first compound 0.08 µM) | relative viability ([5]; first compound 0.253 µM) | relative viability ([5]; first compound 2.53 µM) | relative viability ([5]; first compound 8 µM)
1 | LC-2-ad | 0.305 | 0.293 | 0.258 | 0.274 | 0.881 | 0.789 | 0.762 | 0.59 | 0.942 | 0.86 | 0.967 | 0.769 | 0.432 | 0.369 | 0.32 | 0.193 | 0.934 | 0.822 | 0.732 | 0.396
2 | LU99A | 0.195 | 0.166 | 0.193 | 0.138 | 0.86 | 0.91 |  | 0.606 | 0.369 | 0.307 | 0.321 | 0.155 | 0.308 | 0.3 | 0.347 | 0.325 | 0.509 | 0.404 | 0.252 | 0.263
3 | NCI-H2023 | 0.267 | 0.252 | 0.226 | 0.121 | 0.235 | 0.232 | 0.22 | 0.189 |  |  |  |  | 0.301 | 0.269 | 0.263 | 0.181 | 0.686 | 0.539 | 0.459 | 0.112
4 | NCI-H2342 |  | 0.729 | 0.78 | 0.532 | 0.778 | 0.676 | 0.716 | 0.712 | 0.589 | 0.409 | 0.554 | 0.353 |  |  |  |  | 0.887 | 0.749 | 0.71 | 0.682
5 | NCI-H1944 | 0.697 | 0.557 | 0.735 | 0.438 |  | 0.47 | 0.482 | 0.38 | 0.584 | 0.453 | 0.679 | 0.31 | 0.368 | 0.332 | 0.365 | 0.274 | 0.384 | 0.436 | 0.367 | 0.253
6 | NCI-H1651 | 0.575 | 0.601 | 0.611 | 0.511 | 0.658 | 0.564 | 0.577 | 0.501 | 0.537 | 0.362 | 0.399 | 0.322 | 0.688 | 0.517 | 0.555 | 0.445 | 0.853 | 0.791 | 0.835 | 0.74
7 | SK-LU-1 | 1.06 | 0.871 | 0.897 | 0.388 | 0.605 | 0.564 | 0.578 | 0.396 |  |  |  |  | 0.61 | 0.439 | 0.579 | 0.412 | 0.726 | 0.44 | 0.302 | 0.234
8 | CAL-12T | 1.22 | 1.1 | 1.01 | 1.13 |  |  |  |  | 0.642 | 0.528 | 0.616 | 0.432 | 0.6 | 0.396 | 0.575 | 0.396 | 0.5 | 0.312 | 0.339 | 0.213
9 | EMC-BAC-2 | 0.438 | 0.389 | 0.41 | 0.516 | 0.925 |  |  | 0.757 | 1.12 | 0.982 | 1.15 | 1.06 | 0.54 | 0.6 | 0.549 | 0.472 | 0.86 |  | 0.7 | 0.44
10 | NCI-H838 | 0.277 | 0.244 | 0.252 | 0.16 | 0.507 | 0.454 | 0.429 | 0.373 | 0.971 | 0.93 |  | 0.923 | 0.516 | 0.412 | 0.77 | 0.38 | 0.606 | 0.507 | 0.498 | 0.291
11 | ABC-1 |  |  |  |  | 1.23 |  | 0.823 | 1 | 1.09 | 0.714 | 0.876 | 0.68 | 0.78 | 0.713 | 1.02 | 0.332 |  |  |  | 
12 | NCI-H727 |  |  |  |  | 0.988 | 0.947 | 0.805 | 0.781 | 0.716 | 0.6 |  | 0.502 | 0.332 | 0.337 | 0.257 | 0.311 | 0.416 | 0.351 | 0.391 | 0.367
13 | NCI-H520 | 0.731 | 0.781 | 0.58 | 0.199 |  | 0.421 | 0.446 | 0.299 |  |  |  |  | 0.337 | 0.322 | 0.307 | 0.188 | 0.934 | 0.403 | 0.518 | 0.217
14 | NCI-H522 | 1.02 | 0.782 | 0.863 | 0.883 | 0.645 | 0.686 | 0.657 | 0.648 | 1.1 | 0.556 | 0.874 | 0.723 |  |  |  |  | 0.789 | 0.664 | 0.748 | 0.58
15 | SW 900 | 0.462 | 0.479 | 0.517 | 0.471 | 0.397 | 0.56 | 0.418 | 0.475 | 0.675 | 0.571 | 0.571 | 0.377 |  |  |  |  |  | 0.792 | 0.934 | 0.719
16 | IA-LM |  |  |  |  |  |  |  |  |  |  |  |  | 0.451 | 0.37 | 0.311 | 0.212 |  |  |  | 
17 | NCI-H1703 |  |  |  |  |  |  |  |  | 0.125 | 0.133 | 0.134 | 0.106 | 0.243 | 0.21 | 0.197 | 0.177 |  |  |  | 
18 | SW 1573 | 0.911 |  | 0.719 | 0.374 | 0.57 | 0.511 | 0.408 | 0.182 |  |  |  |  | 0.464 | 0.465 | 0.402 | 0.257 | 0.549 | 0.608 | 0.337 | 0.131
19 | NCI-H1650 | 0.405 | 0.454 | 0.531 | 0.334 | 0.443 | 0.61 | 0.49 | 0.439 |  |  |  |  | 0.691 | 0.529 | 0.71 | 0.308 | 0.858 | 0.499 | 0.752 | 0.241
20 | NCI-H661 | 0.918 | 0.688 | 0.883 | 0.427 | 0.57 | 0.503 | 0.531 | 0.356 |  |  |  |  | 0.456 | 0.397 | 0.422 | 0.286 | 0.584 |  | 0.444 | 0.291
